Drawing on patent US10239863B2, “Factor XIa inhibitors” (Merck Sharp & Dohme Corp., priority 2013, dated 2019), this text covers IC50 for 19 compounds.

The structures appear in SMILES notation. Counter-ions that a name gives are not always drawn.

The assay deals with T1, purified human Factor XIa (Homo sapiens, UniProt P03951).
T1 construct: Determinations were made using purified human Factor XIa; purchased Sekisui Diagnostics
T1 sequence (P03951 388-625 limits assumed): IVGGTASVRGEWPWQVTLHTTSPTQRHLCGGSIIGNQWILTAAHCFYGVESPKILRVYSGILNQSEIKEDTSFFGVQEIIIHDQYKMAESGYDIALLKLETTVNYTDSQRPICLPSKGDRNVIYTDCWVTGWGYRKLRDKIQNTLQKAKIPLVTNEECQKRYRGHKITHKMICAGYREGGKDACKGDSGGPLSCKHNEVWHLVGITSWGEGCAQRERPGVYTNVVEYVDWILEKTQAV
T1 sequence (P03951 19-387 partner limits assumed): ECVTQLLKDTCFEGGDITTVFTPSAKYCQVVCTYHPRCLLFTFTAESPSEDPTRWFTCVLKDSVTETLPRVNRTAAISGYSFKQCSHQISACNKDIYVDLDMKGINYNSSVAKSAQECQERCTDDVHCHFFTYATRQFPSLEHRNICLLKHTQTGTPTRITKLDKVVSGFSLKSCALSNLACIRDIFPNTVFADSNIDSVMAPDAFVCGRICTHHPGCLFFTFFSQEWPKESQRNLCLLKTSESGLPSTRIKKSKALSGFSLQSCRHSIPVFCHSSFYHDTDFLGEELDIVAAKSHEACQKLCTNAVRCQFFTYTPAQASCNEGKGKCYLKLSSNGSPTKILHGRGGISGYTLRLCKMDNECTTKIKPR
In words: Factor XIa Assay (hydrolysis of fluorogenic substrate Z-Gly-Pro-Arg-AFC). To be noted: purified human Factor XIa 40 pM; Z-Gly-Pro-Arg-AFC 100 μM; 50 mM HEPES pH 7.4; read-out: Factor XIa Inhibition (IC50 (nM)). In kind it is biochemical. Here is the method:
The effectiveness of compounds of the present invention as inhibitors of Coagulation Factor XIa can be determined using a relevant purified serine protease, and an appropriate synthetic substrate. The rate of hydrolysis of the chromogenic or fluorogenic substrate by the relevant serine protease was measured both in the absence and presence of compounds of the present invention. Assays were conducted at room temperature or at 37° C. […] A decrease in the rate of fluorescence change in the presence of inhibitor is indicative of enzyme inhibition. Such methods are known to one skilled in the art. […]
Factor XIa determinations were made in 50 mM HEPES buffer at pH 7.4 containing 150 mM NaCl, 5 mM CaCl2, and 0.1% PEG 8000 (polyethylene glycol; JT Baker or Fisher Scientific). Determinations were made using purified human Factor XIa at a final concentration of 40 pM (Sekisui Diagnostics) and the synthetic substrate, Z-Gly-Pro-Arg-AFC, TFA salt (Sigma #C0980) at a concentration of 100 μM.
Times required to achieve equilibration between enzyme and inhibitor were determined in control experiments. Initial velocities of product formation in the absence (Vo) or presence of inhibitor (Vi) were measured. Assuming competitive inhibition, and that unity is negligible compared Km/[S], [I]/e, and [I]/e (where [S], [I], and e respectively represent the total concentrations, of substrate, inhibitor and enzyme), the equilibrium constant (Ki) for dissociation of the inhibitor from the enzyme can be obtained from the dependence of Vo/Vi on [I] shown in the following equation.
`C[C@@H]1C[C@H](C2CCNCC2)CN(C(=O)/C=C/c2cc(Cl)ccc2-n2cnnn2)[C@@H]1C(=O)Nc1ccc(C(=O)O)cc1` [Example 24, 4-((3R,5R,6S)-1-((E)-3-(5-chloro-2-(1H-tetrazol-1-yl)phenyl)acryloyl)-5-methyl-[3,4′-bipiperidine]-6-carboxamido)benzoic acid]: the IC50 (in general, the concentration that gives 50% inhibition) was 579 nM.

Consider `NC1CCN([C@H]2C[C@@H](c3ccc(F)cc3)[C@@H](c3nc(-c4cccnc4)c[nH]3)N(C(=O)/C=C/c3cc(Cl)ccc3-n3cnnn3)C2)CC1` [Example 15, (3′S,5′S,6′S)-1′-{(2E)-3-[5-chloro-2-(1H-tetrazol-1-yl)phenyl]prop-2-enoyl}-5′-(4-fluorophenyl)-6′-(4-pyridin-3-yl-1H-imidazol-2-yl)-1,3′-bipiperidin-4-amine], for which the IC50 is 82.1 nM.

Consider `O=C(Nc1ccc2[nH]ncc2c1)[C@@H]1[C@H](c2ccc(F)cc2)C[C@H](N2CCOCC2)CN1C(=O)/C=C/c1cc(Cl)ccc1-n1cnnn1` [Example 29, (2S,3S,5S)-1′-{(2E)-3-[5-Chloro-2-(1H-tetrazol-1-yl)phenyl]prop-2-enoyl}-3-(4-fluorophenyl)-N-1H-indazol-5-yl-5-morpholin-4-ylpiperidine-2-carboxamide], for which the IC50 was 81.1 nM.

Consider `NC1CCN([C@@H]2C[C@H](c3ccccc3)[C@H](C(=O)Nc3ccc(C(=O)O)cc3)N(C(=O)/C=C/c3cc(Cl)ccc3-n3cnnn3)C2)CC1` [Example 7, 4-({[(3′R,5′R,6′R)-4-amino-1′-{(2E)-3-[5-chloro-2-(1H-tetrazol-1-yl)phenyl]prop-2-enoyl}-5′-phenyl-1,3′-bipiperidin-6′-yl]carbonyl}amino)benzoic acid], for which the IC50 was 0.4 nM.

`O=C(O)c1ccc(NC(=O)[C@H]2[C@@H](c3ccccc3)C[C@@H](OC3CCNCC3)CN2C(=O)/C=C/c2cc(Cl)ccc2-n2cnnn2)cc1` [Example 10, 4-((2R,3R,5R)-1-((E)-3-(5-chloro-2-(1H-tetrazol-1-yl)phenyl)acryloyl)-3-phenyl-5-(piperidin-4-yloxy)piperidine-2-carboxamido)benzoic acid]: the IC50 was found to be 306 nM.

Take `CC(C)C1CC(N2CCC(N)CC2)CN(C(=O)/C=C/c2cc(Cl)ccc2-n2cnnn2)C1C(=O)Nc1ccc(C(=O)O)cc1` (stereo not shown) [Example 3, 4-({[4-amino-1′-{(2E)-3-[5-chloro-2-(1H-tetrazol-1-yl)phenyl]prop-2-enoyl}-5′-(1-methylethyl)-1,3′-bipiperidin-6′-yl]carbonyl}amino)benzoic acid]: the IC50 came out at 27.2 nM.

Consider `NC1CCN(C2CC(C3CC3)C(C(=O)Nc3ccc(C(=O)O)cc3)N(C(=O)/C=C/c3cc(Cl)ccc3-n3cnnn3)C2)CC1` (stereo not shown) [Example 4, 4-{[(4-amino-1′-{(2E)-3-[5-chloro-2-(1H-tetrazol-1-yl)phenyl]prop-2-enoyl}-5′-cyclopropyl-1,3′-bipiperidin-6′-yl)carbonyl]amino}benzoic acid], for which the IC50 stood at 2.2 nM.

Regarding `COC(=O)Nc1ccc(-c2c[nH]c([C@@H]3[C@H](C4CC4)C[C@H](C4CCN(S(C)(=O)=O)CC4)CN3C(=O)/C=C/c3cc(Cl)ccc3-n3cnnn3)n2)cc1` (single isomer, unassigned) [Example 28], the half-inhibitory concentration (IC50) amounted to 652 nM.

Take `COC(=O)Nc1ccc(-c2cnc(C3C(c4ccc(F)cc4)CC(N4CCC(N)CC4)CN3C(=O)/C=C/c3c(C(F)(F)F)ccc(Cl)c3F)[nH]2)cc1` (stereo not shown) [Example 20, methyl (4-{2-[4-amino-1′-{(2E)-3-[3-chloro-2-fluoro-6-(trifluoromethyl)phenyl]prop-2-enoyl}-5′-(4-fluorophenyl)-1,3′-bipiperidin-6′-yl]-1H-imidazol-5-yl}phenyl)carbamate]: the IC50 is 128 nM.

As to `O=C(O)c1ccc(NC(=O)[C@@H]2[C@H](c3ccccc3)C[C@H](OC3CCNCC3)CN2C(=O)/C=C/c2cc(Cl)ccc2-n2cnnn2)cc1` (racemic) [Example 8, 4-(1-((E)-3-(5-Chloro-2-(1H-tetrazol-1-yl)phenyl)acryloyl)-3-phenyl-5-(piperidin-4-yloxy)piperidine-2-carboxamido)benzoic acid], the 50% inhibitory concentration (IC50) was 4.7 nM.

In the case of `CC(=O)N1CCN([C@H]2C[C@@H](c3ccc(F)cc3)[C@@H](C(=O)Nc3ccc4[nH]ncc4c3)N(C(=O)/C=C/c3cc(Cl)ccc3-n3cnnn3)C2)CC1` [Example 32, (2S,3S,5S)-5-(4-acetylpiperazin-1-yl)-1-{(2E)-3-[5-chloro-2-(1H-tetrazol-1-yl)phenyl]prop-2-enoyl}-3-(4-fluorophenyl)-N-1H-indazol-5-ylpiperidine-2-carboxamide], the IC50 came out at 72.2 nM.

For the compound `COC(=O)Nc1ccc(-c2c[nH]c(C3C(c4ccc(F)cc4)CC(N4CCC(N)CC4)CN3C(=O)/C=C/c3cc(Cl)ccc3-n3cnnn3)n2)cc1` (single isomer, unassigned) [Example 13, Methyl (4-{2-[4-amino-1′-{(2E)-3-[5-chloro-2-(1H-tetrazol-1-yl)phenyl]prop-2-enoyl}-5′-(4-fluorophenyl)-1,3′-bipiperidin-6′-yl]-1H-imidazol-4-yl}phenyl)-carbamate], the IC50 came out at 1.7 nM.

Take `N#Cc1ccc(-c2cnc(C3C(c4ccc(F)cc4)CC(N4CCC(N)CC4)CN3C(=O)/C=C/c3cc(Cl)ccc3-n3cnnn3)[nH]2)cc1` (stereo not shown) [Example 18, 4-{2-[4-amino-1′-{(2E)-3-[5-chloro-2-(1H-tetrazol-1-yl)phenyl]prop-2-enoyl}-5′-(4-fluorophenyl)-1,3′-bipiperidin-6′-yl]-1H-imidazol-5-yl}benzonitrile]: the IC50 is 16.5 nM.

Regarding `COC(=O)Nc1ccc(-c2c[nH]c(C3C(c4ccc(F)cc4)CC(N4CCC(N)CC4)CN3C(=O)/C=C/c3c(F)ccc(Cl)c3F)n2)cc1` (stereo not shown) [Example 21, methyl [4-(2-{4-amino-1′-[(2E)-3-(3-chloro-2,6-difluorophenyl)prop-2-enoyl]-5′-(4-fluorophenyl)-1,3′-bipiperidin-6′-yl}-1H-imidazol-4-yl)phenyl]carbamate], the IC50 was 407 nM.

On to `COC(=O)Nc1ccc(-c2c[nH]c(C3C(c4ccc(F)cc4)CC(C4CCNCC4)CN3C(=O)/C=C/c3cc(Cl)ccc3-n3cnnn3)n2)cc1` (stereo not shown) [Example 27, methyl (4-{2-[1-{(2E)-3-[5-chloro-2-(1H-tetrazol-1-yl)phenyl]prop-2-enoyl}-5-(4-fluorophenyl)-3,4′-bipiperidin-6-yl]-1H-imidazol-4-yl}phenyl)car-bamate], for which the IC50 stood at 710 nM.

For `COC(=O)Nc1ccc(-c2cnc(C3C(c4ccc(F)cc4)CC(N4CCC(N)CC4)CN3C(=O)/C=C/c3c(C(F)(F)F)ccc(Cl)c3F)[nH]2)cc1` (stereo not shown) [Example 19, methyl (4-{2-[4-amino-1′-{(2E)-3-[3-chloro-2-fluoro-6-(trifluorometh-yl)phenyl]prop-2-enoyl}-5′-(4-fluorophenyl)-1,3′-bipiperidin-6′-yl]-1H-imidazol-5-yl}phenyl)carbamate], the IC50 was determined as 67.8 nM.

Consider `O=C(O)c1ccc(NC(=O)[C@@H]2[C@H](OC3CCNCC3)C[C@H](c3ccccc3)CN2C(=O)/C=C/c2cc(Cl)ccc2-n2cnnn2)cc1` (racemic) [Example 12, 4-(1-((E)-3-(5-chloro-2-(1H-tetrazol-1-yl)phenyl)acryloyl)-5-phenyl-3-(piperidin-4-yloxy)piperidine-2-carboxamido)benzoic acid], for which the IC50 was determined as 155 nM.

For the compound `O=C(O)c1ccc(NC(=O)[C@@H]2[C@H](c3ccccc3)C[C@H](C3CCNCC3)CN2C(=O)/C=C/c2cc(Cl)ccc2-n2cnnn2)cc1` (single isomer, unassigned) [Example 23, trifluoroacetic acid salt], the IC50 came out at 640 nM.

Turning to `C[C@@H]1C[C@H](C2CCNCC2)CN(C(=O)c2ccc(CN)c(C3CC3)c2)[C@@H]1C(=O)Nc1ccc(C(=O)O)cc1` [Example 25, 4-((3R,5R,6S)-1-(4-(aminomethyl)-3-cyclopropylbenzoyl)-5-methy-1-[3,4′-bipiperidine]-6-carboxamido) benzoic acid], the IC50 was found to be 519 nM.
